Laboratory results taken from US9499614B2, “Methods for modulating protein glycosylation profiles of recombinant protein therapeutics using monosaccharides and oligosaccharides” (AbbVie, Inc., priority 2013, dated 2016).

Legend:
Cell Line 1 = assay: Shake flask fedbatch culture of Cell Line 1 (Antibody 1), cell culture performance (Example 2); type: cell-based, Chinese Hamster; details: for Antibody 1 harvest titer: 1, 10, 30, 50, 70 mM vs control
Experimental: Two recombinant Chinese Hamster Ovary (CHO) cell lines expressing two different recombinant glycoproteins were evaluated in two different cultures vessels (shaker flasks and 3 L laboratory scale bioreactors). Cell Line 1 expressed Antibody 1, Cell Line 2 expressed Dual Variable Domain Immunoglobulin 1 (DVD 1) and Cell Line 3 expressed Antibody 2. Antibodies 1 and 2 are IgG1 proteins, and DVD 1 is an immunoglobulin with two variable domains as documented previously (Wu C. et al., (2007) Nat. Biotechnol 25(11):1290-1297). All cell lines were of CHO DUX-B11 origin based on a dhfr (dihydrofolate reductase) expression system. All cell lines were cultured in the same chemically defined basal media. Cell lines 1 and 2 were fed with the same chemically-defined feed media, but Cell Line 1 was fed media that was formulated at a 50% higher concentration. Each of the respective media were supplemented with either sucrose or tagatose to evaluate their potential impact on the resulting N-glycan oligosaccharide profile. All sugars were purchased from Sigma-Aldrich (St. Louis, Mo.). In preparation of the cultures, the cell lines were serially expanded through separate seed train inoculums to generate enough cells for inoculation. […] [table] Viable cell density (VCD) and cell viability values were measured through trypan blue exclusion via Cedex automated cell counters (Roche Applied Science, Indianapolis, Ind.), glucose and lactate values were measured with a ABL-805 (Radiometer Medical, Denmark) blood gas analyzer. Offline pH, dissolved oxygen (DO), and pCO2 measurements were performed with an ABL-805 (Radiometer Medical, Denmark) blood gas analyzer. Osmolality was measured on a Multi-Osmette 2430 osmometer (Precision Systems, Natick, Mass.). Antibody titers were measured from crude cell culture harvests on a Poros A™ (Life Technologies, Carlsbad, Calif.) affinity column using an Agilent (Santa Clara, Calif.) 1200 Series HPLC, or equivalent, operating with a low pH, step elution gradient with detection at 280 nm. Absolute concentrations were assigned with respect to reference standard calibration curves. Experimental results are expressed as mean±SD for those results generated from at least three independent cultures. Experimental results are expressed as the measured value for those results generated from less than three independent cultures. Results were evaluated for statistical significance through 2-sided t-tests, with a requirement of p<0.05 relative to the unsupplemented control conditions. Cell Line 1 was cultured in shake flasks in fedbatch mode after an abbreviated seed train. Sucrose and tagatose were supplemented into chemically-defined basal and feed media at concentrations of 1, 10, 30, 50, and 70 mM, and compared to unsupplemented control conditions. The viable cell density (VCD), viability, and harvest titer results are shown in FIGS. 13A-13C for the sucrose supplemented cultures and FIGS. 14A-14C for the tagatose supplemented cultures.

Cell Line 2 = assay: Shake flask fed batch culture of Cell Line 2 (DVD 1), cell culture performance (Example 2); type: cell-based, Chinese Hamster; details: for viable cell density over time: 1, 30 and 50 mM vs control
Experimental: Two recombinant Chinese Hamster Ovary (CHO) cell lines expressing two different recombinant glycoproteins were evaluated in two different cultures vessels (shaker flasks and 3 L laboratory scale bioreactors). Cell Line 1 expressed Antibody 1, Cell Line 2 expressed Dual Variable Domain Immunoglobulin 1 (DVD 1) and Cell Line 3 expressed Antibody 2. Antibodies 1 and 2 are IgG1 proteins, and DVD 1 is an immunoglobulin with two variable domains as documented previously (Wu C. et al., (2007) Nat. Biotechnol 25(11):1290-1297). All cell lines were of CHO DUX-B11 origin based on a dhfr (dihydrofolate reductase) expression system. All cell lines were cultured in the same chemically defined basal media. Cell lines 1 and 2 were fed with the same chemically-defined feed media, but Cell Line 1 was fed media that was formulated at a 50% higher concentration. Each of the respective media were supplemented with either sucrose or tagatose to evaluate their potential impact on the resulting N-glycan oligosaccharide profile. All sugars were purchased from Sigma-Aldrich (St. Louis, Mo.). In preparation of the cultures, the cell lines were serially expanded through separate seed train inoculums to generate enough cells for inoculation.
Viable cell density (VCD) and cell viability values were measured through trypan blue exclusion via Cedex automated cell counters (Roche Applied Science, Indianapolis, Ind.), glucose and lactate values were measured with a ABL-805 (Radiometer Medical, Denmark) blood gas analyzer. Offline pH, dissolved oxygen (DO), and pCO2 measurements were performed with an ABL-805 (Radiometer Medical, Denmark) blood gas analyzer. Osmolality was measured on a Multi-Osmette 2430 osmometer (Precision Systems, Natick, Mass.).
Antibody titers were measured from crude cell culture harvests on a Poros A™ (Life Technologies, Carlsbad, Calif.) affinity column using an Agilent (Santa Clara, Calif.) 1200 Series HPLC, or equivalent, operating with a low pH, step elution gradient with detection at 280 nm. Absolute concentrations were assigned with respect to reference standard calibration curves.
Experimental results are expressed as mean±SD for those results generated from at least three independent cultures. Experimental results are expressed as the measured value for those results generated from less than three independent cultures. Results were evaluated for statistical significance through 2-sided t-tests, with a requirement of p<0.05 relative to the unsupplemented control conditions.
Cell Line 2 was cultured in shake flasks in fed batch mode after an abbreviated seed train. Sucrose and tagatose were supplemented into chemically-defined basal and feed media at concentrations of 1, 30, and 50 mM, and process performance results were compared to unsupplemented control conditions. The viable cell density (VCD), viability, and harvest titer results are shown in FIGS. 15A-15C for the sucrose supplemented cultures and FIGS. 16A-16C for the tagatose supplemented cultures.

Row | SMILES | peak VCD (Cell Line 1; 50 mM and 70 mM) | increase in harvest titer (Cell Line 1; 50 mM vs control) [%] | Antibody 1 harvest titer (Cell Line 1) | viable cell density over time (Cell Line 1; 1, 10 and 30 mM) | cell viability after process day 10 (Cell Line 1; 10, 30, 50 and 70 mM) | harvest titer reduction (Cell Line 2; 50 mM vs control) [%] | reduction in peak VCD (Cell Line 2; 50 mM vs control) | viable cell density over time (Cell Line 2) | viable cell density over time (Cell Line 1; 1 mM and 10 mM) | decrease in harvest titer (Cell Line 1; 70 mM vs control) [%] | cell viability after process day 10 (Cell Line 1; 30, 50 and 70 mM) | peak VCD (Cell Line 1; 30, 50 and 70 mM) | relative harvest titer (Cell Line 2; 1 mM vs control) | viability after Day 8 (Cell Line 2; 30 mM and 50 mM vs control) | harvest titer decrease (Cell Line 2; 30 mM vs control) [%]
1 | OC[C@H]1O[C@@](CO)(O[C@H]2O[C@H](CO)[C@@H](O)[C@H](O)[C@H]2O)[C@@H](O)[C@@H]1O [sucrose] | reduction in peak VCD | 2 | essentially indistinguishable from the control conditions | remained essentially the same | died slower than the control | 48 | at most 2×10^6 cells/mL | remained approximately the same | – | – | – | – | – | – | –
2 | O=C(CO)[C@@H](O)[C@@H](O)[C@H](O)CO [tagatose] | – | – | essentially indistinguishable | – | – | 38 | – | slightly higher compared to the control | remained similar or higher | 9 | died slower than the control | reduction in peak VCD | did not adversely impact relative harvest titer | remained higher than the control | 15
